Assay results published in patent US4533553A, “Polycyclic ether antibiotic” (priority 1983, dated 1985).

Legend:
Assay in all cases: in vitro MIC test
Format in all cases: cell-based
Conditions in all cases: 24 h
[1] = test system: Enterobacteriacese aerogenes
Method: (§1) In Table I, below, the results of in vitro MIC tests are summarized. For this test each organism is inoculated in a series of test tubes containing nutrient medium and varying concentrations of Compound 53,607 to determine the minimal concentration of the antibiotic in mcg/ml which inhibits the growth of the organism over a period of 24 hours (MIC).

Escherischia coli = test system: Escherischia coli
Method: as §1

Klebsiella pneumoniae = test system: Klebsiella pneumoniae
Method: as §1

Pseudomonas aeruginosa = test system: Pseudomonas aeruginosa
Method: as §1

Serratia marcescens = test system: Serratia marcescens
Method: as §1

Measured: MIC

CC(=CC(C)C1OC2(CCC(C)(C3CCC(C)C4(OC(C5OC(O)(CO)C(C)CC5C)CC4C)O3)O2)CC(O)C1C)C(=O)C(C)CC(C)C(=O)O (centres unmarked) [Antibiotic Compound 53,607]
> 50 µg/mL: all assays above
